Test results: ChEMBL document CHEMBL1799975 (J Med Chem, 2011)

What was measured:
[1] = Lipophilicity, log D of the compound at pH 7.4 by HPLC analysis; type: physicochemical; details: buffer
[2] = Oral bioavailability in rat at 0.1 mg/kg by LC-MS-MS analysis; type: ADME, organism-based; details: in vivo
[3] = Mean residence time in rat at 0.1 mg/kg, po by LC-MS-MS analysis; type: ADME, organism-based; design: dose 0.1 mg/kg, route oral; details: in vivo
[4] = Ratio of drug level in brain to plasma of rat at 0.2 mg/kg, iv after 30 mins by LC-MS-MS analysis; type: ADME, organism-based; design: dose 0.2 mg/kg, route intravenous; details: read-out: BPR
[5] = Volume of distribution at steady state in rat at 0.1 mg/kg, iv by LC-MS-MS analysis; type: ADME, organism-based; design: dose 0.1 mg/kg, route intravenous; details: in vivo, read-out: Vdss
[6] = Ratio of drug level in brain to plasma of rat at 0.2 mg/kg, iv after 15 mins by LC-MS-MS analysis; type: ADME, organism-based; design: dose 0.2 mg/kg, route intravenous; details: read-out: BPR
[7] = Drug level in rat brain at 0.2 mg/kg, iv after 30 mins by LC-MS-MS analysis; type: ADME, organism-based; design: dose 0.2 mg/kg, route intravenous; details: read-out: Drug uptake
[8] = Drug level in rat plasma at 0.2 mg/kg, iv after 15 mins by LC-MS-MS analysis; type: ADME, organism-based; design: dose 0.2 mg/kg, route intravenous
[9] = Drug level in rat brain at 0.2 mg/kg, iv after 15 mins by LC-MS-MS analysis; type: ADME, organism-based; design: dose 0.2 mg/kg, route intravenous; details: read-out: Drug uptake
[10] = Cmax in rat at 0.1 mg/kg, iv by LC-MS-MS analysis; type: ADME, organism-based; design: dose 0.1 mg/kg, route intravenous; details: in vivo
[11] = AUC in rat at 0.1 mg/kg, po by LC-MS-MS analysis; type: ADME, organism-based; design: dose 0.1 mg/kg, route oral; details: plasma
[12] = Drug level in rat plasma at 0.2 mg/kg, iv after 30 mins by LC-MS-MS analysis; type: ADME, organism-based; design: dose 0.2 mg/kg, route intravenous

| logD [1] | SMILES | also measured |
| --- | --- | --- |
| 1.39 | CCC(=O)NCCc1c(C)nn2ccc3c(c12)CCO3 | – |
| 1.61 | CC(=O)NCCc1c(C2CC2)nn2ccc3c(c12)CCO3 | – |
| 1.64 | CC(=O)NCCc1c(C(F)(F)F)nn2ccc3c(c12)CCO3 | – |
| 3.49 | CC(=O)NCCC1=C(c2ccccc2)Cc2ccc3c(c21)CCO3 | – |
| 1.04 | CC(=O)NCCc1c(C)nn2ccc3c(c12)CCO3 | – |
| 1.71 | CCC(=O)NCCc1c(CC)nn2ccc3c(c12)CCO3 | – |
| 1.39 | CC(=O)NCCn1c(-c2ccccc2)nc2ccc3c(c21)CCO3 | – |

More lines, now with the values behind:

| SMILES | logD [1] | also measured |
| --- | --- | --- |
| COc1ccc2[nH]cc(CCNC(C)=O)c2c1 [MELATONIN] | 0.5 | – |
| CC(=O)NCCc1c(-c2ccccc2)nc2ccc3c(n12)CCO3 | 1.66 | – |
| CCc1nn2ccc3c(c2c1CCNC(C)=O)CCO3 | 1.48 | bioavailability [2]: 19.7%; MRT [3]: 57 min; Kp at 0.5 h [4]: 0.22; Vd [5]: 0.664 L/kg; Kp at […] [6]: 0.28; concentration at 0.5 h [7]: 12.4 ng/g; concentration at […] [8]: 83.2 ng/mL; concentration at […] [9]: 23.7 ng/g; Cmax [10]: 12.4 ng/mL; AUC [11]: 14.4 ng·h/mL; concentration at 0.5 h [12]: 55.9 ng/mL |
| CCC(=O)NCCc1c(C(F)(F)F)nn2ccc3c(c12)CCO3 | 1.94 | – |
| CCC(=O)NCCc1c(C2CC2)nn2ccc3c(c12)CCO3 | 1.89 | – |
| CC(=O)NCCc1c(-c2ccccc2)nn2ccc3c(c12)CCO3 | 2.04 | – |
